# Active and inactive are the calls of the source.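 The calls were made as follows: active = signal decrease with fitted half-maximal dose at or below ten times the highest valid tested dose; inconclusive = poor fit, or flat fit at 30 to 70% inhibition; inactive = the rest.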
# Biological target: Zinc finger protein mex-5 (Caenorhabditis elegans) (UniProt Q9XUB2)
# Test: inhibitors of MEX-5 RNA binding, dose response, biochemical, fluorescence polarization, C. elegans, cherry-picked, round 3 (AID 493250)
# Conditions: purified MEX-5-MBP, FITC-TCR2 RNA fluorescence polarization
# Zinc finger protein mex-5 (Caenorhabditis elegans), sequence (Q9XUB2 whole entry, looked up): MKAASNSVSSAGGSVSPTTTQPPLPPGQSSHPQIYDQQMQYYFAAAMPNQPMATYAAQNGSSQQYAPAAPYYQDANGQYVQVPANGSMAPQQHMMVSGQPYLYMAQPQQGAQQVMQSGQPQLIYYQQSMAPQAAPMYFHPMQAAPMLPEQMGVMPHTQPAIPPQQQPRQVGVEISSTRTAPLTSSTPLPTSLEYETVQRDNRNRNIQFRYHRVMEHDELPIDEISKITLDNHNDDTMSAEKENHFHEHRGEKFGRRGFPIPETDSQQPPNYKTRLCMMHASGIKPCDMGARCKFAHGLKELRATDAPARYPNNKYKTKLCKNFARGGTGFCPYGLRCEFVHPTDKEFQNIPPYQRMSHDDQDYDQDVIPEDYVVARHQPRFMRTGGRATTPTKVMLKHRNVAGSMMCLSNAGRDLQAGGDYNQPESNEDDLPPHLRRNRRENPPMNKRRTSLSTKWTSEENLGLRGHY
row,SMILES,AC50
1,O=C1C(Br)=Cc2cccc3cccc1c23,3.06 µM
2,CN1CC=C2C(C#N)=C(N)C(C#N)(C#N)C(Cc3ccccc3)C2C1 (centres undefined),4.69 µM
3,OCCCc1nc2n(n1)C(c1ccccc1Cl)C=C(c1cccs1)N2 (centres undefined),10.1 µM
4,COc1ccc(NC(=O)c2cccc(-c3ccc(O)cc3)c2)cn1,3.91 µM
5,CCC(=O)Oc1ccc2c(c1)O/C(=C\c1ccco1)C2=O,5.51 µM
6,COc1cccc(C2C=C(c3cccs3)Nc3ncnn32)c1OC (centres undefined),> 10 µM (inactive)
7,COc1ccc(OC)c(NC(=O)c2sc3nc(Cc4ccccc4)cc(C(F)(F)F)c3c2N)c1,6.44 µM
8,COc1ccc(NS(=O)(=O)c2cccc(C(=O)NNC(=O)c3cc(S(N)(=O)=O)ccc3OC)c2)cc1,> 10 µM (inactive)
9,CCN(CC)c1ccc(/C=C(/C#N)c2nc3ccc(C)cc3[nH]2)c(OC(C)C)c1,1.16 µM
10,Cc1nc2nc(-c3ccc(Cl)cc3)cn2nc1C,9.89 µM

# Same assay, conditions: purified MEX-5-MBP, FITC-TCR2 RNA fluorescence polarization; at 10 µM (top of the series)
row,SMILES,"activity change, negative = inhibition"
1,CN(C)CC(O)COc1ccc(C(C)(C)c2ccc(OCC(O)CN(C)C)cc2)cc1 (centres undefined),inactive
2,CCc1ccc(S(=O)(=O)/N=C2\C=C(Nc3ccc(C(=O)O)cc3)C(=O)c3ccccc32)cc1,inactive
3,CC1=CC2=NC(=O)/C(=C\c3ccc(-c4cccc(Cl)c4)o3)C(=N)N2O1,inactive
4,CCCOc1ccc(C2=CSC3=NCCN23)cc1[N+](=O)[O-],inactive
5,COCCNc1ncnc2nc[nH]c12,inactive
6,N#Cc1cc2c(=O)n3ccccc3nc2n(CCCN2CCOCC2)c1=O,inactive
7,O=C(NC1CCSc2ccccc21)c1cccc(Br)c1 (centres undefined),inactive
8,COc1ccc(/C=C2\CCCc3c2nc2ccc(C)cc2c3C(=O)O)cc1O,inactive
9,COc1cc(/C=C2/C(C)=C(C#N)c3nc(N)c(C#N)c(C)c32)ccc1OCC(=O)O,inactive
10,COc1ccc(-c2cn[nH]c2-c2ccc(O)cc2O)cc1OC,inactive
11,O=C(N/N=C/c1c(O)n(Cc2ccco2)c(=O)[nH]c1=O)c1ccccc1,inactive
12,Cc1cccn2c(=O)c3cc(C(=O)NC(C)C)c(=N)n(Cc4ccncc4)c3nc12,inactive
13,NC(=O)C(=O)N/N=C1\CCc2ccccc21,inactive
14,CCOc1ccc(/C=C/C(=O)c2ccccc2)cc1,inactive
15,FC(F)(F)c1ccc(Cl)c(-n2c(-c3cc(-c4ccco4)[nH]n3)n[nH]c2=S)c1,inactive
16,CCC(=O)N(CC)C1=C(O)c2ccccc2C(=O)C1=O,inactive
17,N[C@@H](Cc1ccccc1)C(=O)N1CCC(C(=O)NCC(=O)Nc2ccc(F)cc2)CC1,inactive
18,COc1cccc(CNC23CC4CC(CC(C4)C2)C3)c1OCc1ccccc1,inactive
19,CC(C)(C)CC(C)(C)NCC(O)COc1ccc2c(c1)CCC2 (centres undefined),inactive
20,Oc1cccc(NC(=S)N=Nc2c(O)[nH]c3ccccc23)c1,inactive
21,CC(=O)NNc1ncnc2ccccc12,inactive

row,SMILES,"activity change, negative = inhibition"
1,O=C(CCc1ccccc1)N/N=C\c1cc2c(cc1Br)OCO2,inactive
2,Oc1c(Cl)cc(Cl)c2c1NCCC2,inactive
3,O=C(NNC(=O)c1ccco1)c1csc(N2CCOCC2)n1,inactive
4,C=CCc1cccc2cc(C(=O)NNC(=O)CC#N)c(=O)oc12,inactive
5,CCn1c(C)nc2c1C(=O)c1ccccc1C2=O,inactive
6,CCCCN(C(=O)c1ccc(C)o1)c1c(N)n(CCCC)c(=O)[nH]c1=O,inactive
7,O=C(O)c1ccc(/C=C2\SC(=S)N(Nc3ccccc3)C2=O)cc1,inactive
8,CCCc1nc2ccccc2c(=O)n1/N=C/c1ccc(O)c(O)c1,inactive
9,CCOC(=O)C1CSc2[nH]c(=O)sc2C1c1ccccc1 (centres undefined),inactive
10,O=C(N/N=C/c1c(O)ccc2ccccc12)c1ccc[n+](CCO)c1,inactive
11,CN(C)C(=O)Oc1ccc2c(c1)O/C(=C\c1ccccc1)C2=O,inactive
12,Cc1csc(NC(=O)c2ccc(-c3ccc(Cl)cc3Cl)o2)n1,inactive
13,CN1CCc2c(sc(NC(=O)c3ccc(S(=O)(=O)N4CCCC4)cc3)c2C(N)=O)C1,inactive
14,COc1cc(/C=C/c2nc(-c3ccccc3O)n[nH]2)cc(OC)c1OC,inactive
15,CCCc1cc(C(=O)Cc2ccc(C(=O)OCC)o2)c(O)cc1O,inactive
16,COc1ccccc1N1C(=O)C2C(C(=O)c3ccccc3)=NN(c3ccccc3OC)C2C1=O (centres undefined),inactive
17,O=C(O)c1ccccc1N=Nc1c(O)[nH]c2ccc([N+](=O)[O-])cc12,inactive
18,COc1ccc(N(CCC#N)C(=O)/C(C#N)=C/c2cccs2)cc1,inactive
19,Cc1ccc(Nc2nc(-c3ccc(C)cc3)c(CC(=O)O)s2)cc1,inactive
20,COc1ccc(/C=N/Nc2nc(=O)[nH]nc2C)cc1[N+](=O)[O-],inactive
21,O=C(O)c1cccc(NC(=S)N/N=C/c2c[nH]c3ccccc23)c1,inactive

row,SMILES,"activity change, negative = inhibition"
1,CN1/C(=C\C=C(/C#N)C(=O)Nc2ccccc2F)C(C)(C)c2ccccc21,inactive
2,COc1ccc(C2c3sc(=O)[nH]c3SCC2C(N)=O)cc1 (centres undefined),inactive
3,CCCCN(CCCC)CCNC(=O)CNC(=O)c1cccs1,inactive
4,CCNC(=S)NNC(=O)c1ccccn1,inactive
5,O=c1oc2cc([N+](=O)[O-])ccc2nc1/C=C(\O)c1cccc(Br)c1,inactive
6,N#C/C(=N\Nc1cccc(C(F)(F)F)c1)C(=O)c1ccsc1,inactive
7,Cc1c(Br)c(=O)oc2c(Br)c(O)c(O)cc12,inactive
8,Cn1c(C2=C(O)CN(c3ccccc3)C2=N)nc2ccccc21,inactive
9,O=c1[nH]nc(CNc2ccc(OC(F)(F)F)cc2)c2ccccc12,inactive
10,O=C(Cc1csc(N2CCOCC2)n1)N/N=C/c1ccc(O)c(O)c1O,inactive
11,CC(=O)CCS(=O)(=O)c1ccc(Oc2ccc(S(=O)(=O)CCC(C)=O)cc2)cc1,inactive
12,C=CCn1c(O)c(N=NC(=O)CNC(=O)/C=C/c2ccco2)c2ccccc21,inactive
13,CN(N)c1ccc2c(C(F)(F)F)cc(C(F)(F)F)nc2n1,inactive
14,COc1ccc(CCn2c(=N)c(C(=O)NCC3CCCO3)cc3c(=O)n4ccccc4nc32)cc1 (centres undefined),inactive
15,CC(=O)Nc1ccc(-c2csc(Nc3cccc(C)n3)n2)cc1,inactive
16,COc1ccc(NCc2cccnc2)cc1,inactive
17,COc1ccc(OC)c(/C=N/NC(=O)c2ccc(=O)[nH]n2)c1,inactive
18,CCOc1cc(/C=N/NC(=O)N/N=C/c2ccc(O)c(OCC)c2)ccc1O,inactive
19,COc1ccc(N=C2S/C(=C\c3ccc(N4CCOCC4)o3)C(=O)N2CCc2c[nH]c3ccccc23)cc1,inactive
20,COC(=O)c1ccc(CC(=O)c2c(C)cc(O)cc2O)o1,inactive
21,Cn1c(O)c(C2=c3ccccc3=NC2=O)[nH]c1=S,inactive

row,SMILES,"activity change, negative = inhibition"
1,C=CCOc1ccc(C(c2c(C(=O)O)[nH]c3ccccc23)c2c(C(=O)O)[nH]c3ccccc23)cc1,inactive
2,O=C1c2cccc3cccc(c23)C(=O)N1Cc1ccccc1,inactive
3,CCN(CC)c1ccc(C(=O)N/N=C(\C)c2cccnc2)cc1,inactive
4,O=c1c(OC2OC(CO)C(O)C(O)C2O)c(-c2ccc(O)c(O)c2)oc2cc(O)cc(O)c12 (centres undefined),inactive
5,CC1=C(C(=O)OCc2ccccc2)C(c2cccc([N+](=O)[O-])c2)NC(=O)N1C (centres undefined),inactive
6,COc1ccc(N(CCC#N)C(=O)/C(C#N)=C\c2cccs2)cc1,inactive
7,O=C(O)CCSc1nc2ccccc2n1Cc1ccccc1,inactive
8,COc1ccc(C2NC(=O)N(CCCC(=O)O)C(C)=C2C(=O)OCc2ccccc2)cc1 (centres undefined),inactive
9,CCCCCOP(=O)(OCCCCC)C1(NS(=O)(=O)c2ccccc2)C=CC(=O)c2ccccc21 (centres undefined),inactive
10,O=C(O)c1[nH]c2ccccc2c1C(c1cc(Br)ccc1O)c1c(C(=O)O)[nH]c2ccccc12,inactive
11,O=C(O)c1ccc2c(c1)ncn2C1CCCCC1,inactive
12,CC1CN2C(c3ccc([N+](=O)[O-])cc3)=CSC2=N1 (centres undefined),inactive
13,COc1ccc(NC(=S)NNC(=O)C(C)n2nc(C)c([N+](=O)[O-])c2C)cc1 (centres undefined),inactive
14,Cc1ccc(N/N=C(\C#N)C(=O)c2ccsc2)cc1,inactive
15,COC(=O)/C(C#N)=C/c1c(-c2ccccc2)nc2n1CCS2,inactive
16,NC1=C([N+](=O)[O-])C(c2ccc3c(c2)OCO3)C2=C(CCCC2=O)O1 (centres undefined),inactive
17,COc1cccc(NC(=S)NNC(=O)C(C)n2nc(C)c([N+](=O)[O-])c2C)c1 (centres undefined),inactive
18,CC1=NN(C(N)=S)C(=O)C1N=Nc1cccc(Cl)c1C (centres undefined),inactive
19,CC1(N2CCOCC2)CC2(O)C(=[N+]1[O-])CCc1c2no[n+]1[O-] (centres undefined),inactive
20,CC(C)(C)N(CC#CCC(O)(c1ccccc1)c1ccccc1)CCO,inactive
21,Cc1nc2cc(C(=O)O)ccc2n1-c1ccc(F)cc1F,inactive
